Data from ChEMBL document CHEMBL1137206, “A nonpeptidic sulfonamide inhibits the p53-mdm2 interaction and activates p53-dependent transcription in mdm2-overexpressing cells” (J Med Chem, 2004).

Target: Tumour suppressor p53/oncoprotein Mdm2 (Homo sapiens, UniProt P04637+Q00987)
Experiment: In vitro inhibitory concentration against p53-mdm2 interaction
Type: protein assay

Sequence of Tumour suppressor p53/oncoprotein Mdm2 (P04637 whole entry): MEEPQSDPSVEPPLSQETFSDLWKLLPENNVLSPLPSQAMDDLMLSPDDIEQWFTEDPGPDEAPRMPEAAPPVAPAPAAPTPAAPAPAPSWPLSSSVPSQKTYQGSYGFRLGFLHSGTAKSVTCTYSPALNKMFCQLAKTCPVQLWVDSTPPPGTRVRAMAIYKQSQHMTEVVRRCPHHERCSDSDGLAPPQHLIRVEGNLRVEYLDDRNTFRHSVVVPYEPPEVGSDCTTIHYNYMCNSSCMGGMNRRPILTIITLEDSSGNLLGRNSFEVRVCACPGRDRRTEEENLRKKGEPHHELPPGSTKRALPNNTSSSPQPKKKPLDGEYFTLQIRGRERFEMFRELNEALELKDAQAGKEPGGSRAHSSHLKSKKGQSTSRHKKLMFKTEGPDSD
Sequence of Tumour suppressor p53/oncoprotein Mdm2 (Q00987 whole entry): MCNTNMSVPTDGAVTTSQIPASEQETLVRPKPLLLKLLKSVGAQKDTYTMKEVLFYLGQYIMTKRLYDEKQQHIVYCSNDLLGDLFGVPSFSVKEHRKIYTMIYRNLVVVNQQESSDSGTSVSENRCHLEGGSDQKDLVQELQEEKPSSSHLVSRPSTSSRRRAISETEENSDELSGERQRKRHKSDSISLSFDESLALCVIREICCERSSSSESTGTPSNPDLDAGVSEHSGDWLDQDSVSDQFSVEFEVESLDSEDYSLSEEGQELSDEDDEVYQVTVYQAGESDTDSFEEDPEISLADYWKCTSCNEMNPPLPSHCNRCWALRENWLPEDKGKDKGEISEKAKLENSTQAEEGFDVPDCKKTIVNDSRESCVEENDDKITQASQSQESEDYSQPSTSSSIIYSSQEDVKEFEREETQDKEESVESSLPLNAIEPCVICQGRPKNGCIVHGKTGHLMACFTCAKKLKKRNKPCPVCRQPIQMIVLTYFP

- IC50: 31.8 µM
SMILES: CC(C)Oc1ccc(C(=O)NS(=O)(=O)c2ccc(NN=C3C(=O)N(c4ccccc4)N(c4ccccc4)C3=O)cc2)cc1
